Consider 26 molecules from patent US8022206B2 (OSI Pharmaceuticals, LLC, priority 2008, dated 2011).

One assay addresses RON (human) (Homo sapiens, UniProt Q04912). Briefly: RON (human) AlphaScreen kinase assay, Km of ATP. In kind it is biochemical. The settings on record: AlphaScreen, Km of ATP; read-out: RON biochemical IC50. The method, boiled down:
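Detection used PT66 AlphaScreen beads added in Tris pH 7.5/NaCl/EDTA/BSA buffer, read after 1 h incubation. Vehicle-only DMSO wells served as controls.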

Another assay addresses MET (human) (Homo sapiens, UniProt P08581). In words: MET (human) AlphaScreen kinase assay, Km of ATP. The conditions noted are these: AlphaScreen, Km of ATP; read-out: Met biochemical IC50. In kind it is biochemical. In short, it runs like this:
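Human MET at lot-optimised concentration in 50 mM Tris pH 7.4 buffer with 1 mM DTT, compound at 1% DMSO final; enzyme starts the reaction, 60 min at RT.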
Background: Bead proximity is the source of the signal in Alpha formats.

MET (human), sequence (P08581 25-1390): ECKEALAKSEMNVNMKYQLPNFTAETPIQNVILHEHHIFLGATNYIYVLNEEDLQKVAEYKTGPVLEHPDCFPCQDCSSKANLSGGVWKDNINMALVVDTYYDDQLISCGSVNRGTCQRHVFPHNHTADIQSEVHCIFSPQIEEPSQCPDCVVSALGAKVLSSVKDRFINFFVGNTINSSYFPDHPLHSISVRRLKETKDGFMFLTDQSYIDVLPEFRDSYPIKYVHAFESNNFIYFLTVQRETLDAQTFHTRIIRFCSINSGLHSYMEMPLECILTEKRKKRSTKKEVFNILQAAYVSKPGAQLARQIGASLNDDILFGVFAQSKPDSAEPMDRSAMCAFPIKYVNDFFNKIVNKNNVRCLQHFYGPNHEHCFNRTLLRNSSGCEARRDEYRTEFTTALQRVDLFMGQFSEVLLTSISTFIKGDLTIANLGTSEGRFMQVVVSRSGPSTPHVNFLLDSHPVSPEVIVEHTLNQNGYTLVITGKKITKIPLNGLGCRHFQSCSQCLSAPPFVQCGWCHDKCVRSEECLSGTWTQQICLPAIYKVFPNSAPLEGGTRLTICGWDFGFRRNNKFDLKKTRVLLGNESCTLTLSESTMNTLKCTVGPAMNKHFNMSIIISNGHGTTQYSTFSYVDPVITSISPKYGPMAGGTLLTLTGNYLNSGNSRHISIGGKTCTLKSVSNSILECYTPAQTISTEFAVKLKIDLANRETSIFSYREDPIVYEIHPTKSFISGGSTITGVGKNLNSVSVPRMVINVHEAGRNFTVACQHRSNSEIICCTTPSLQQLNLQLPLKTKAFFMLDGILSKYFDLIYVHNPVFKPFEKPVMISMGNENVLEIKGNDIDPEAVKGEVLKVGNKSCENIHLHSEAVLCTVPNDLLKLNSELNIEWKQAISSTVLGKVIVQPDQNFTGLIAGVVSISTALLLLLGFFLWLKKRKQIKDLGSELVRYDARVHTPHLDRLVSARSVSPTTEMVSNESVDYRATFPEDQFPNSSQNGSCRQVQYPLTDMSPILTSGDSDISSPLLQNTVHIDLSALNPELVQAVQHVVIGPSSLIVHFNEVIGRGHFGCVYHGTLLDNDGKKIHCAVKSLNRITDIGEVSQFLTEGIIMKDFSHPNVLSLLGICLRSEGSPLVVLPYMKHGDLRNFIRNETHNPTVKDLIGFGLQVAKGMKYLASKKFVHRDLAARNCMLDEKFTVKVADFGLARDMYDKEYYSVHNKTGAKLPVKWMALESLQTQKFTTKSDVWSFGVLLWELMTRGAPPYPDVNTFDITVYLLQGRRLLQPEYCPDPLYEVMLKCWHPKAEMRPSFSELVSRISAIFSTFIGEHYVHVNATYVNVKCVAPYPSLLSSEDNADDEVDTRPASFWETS
RON (human), sequence (Q04912 25-1400): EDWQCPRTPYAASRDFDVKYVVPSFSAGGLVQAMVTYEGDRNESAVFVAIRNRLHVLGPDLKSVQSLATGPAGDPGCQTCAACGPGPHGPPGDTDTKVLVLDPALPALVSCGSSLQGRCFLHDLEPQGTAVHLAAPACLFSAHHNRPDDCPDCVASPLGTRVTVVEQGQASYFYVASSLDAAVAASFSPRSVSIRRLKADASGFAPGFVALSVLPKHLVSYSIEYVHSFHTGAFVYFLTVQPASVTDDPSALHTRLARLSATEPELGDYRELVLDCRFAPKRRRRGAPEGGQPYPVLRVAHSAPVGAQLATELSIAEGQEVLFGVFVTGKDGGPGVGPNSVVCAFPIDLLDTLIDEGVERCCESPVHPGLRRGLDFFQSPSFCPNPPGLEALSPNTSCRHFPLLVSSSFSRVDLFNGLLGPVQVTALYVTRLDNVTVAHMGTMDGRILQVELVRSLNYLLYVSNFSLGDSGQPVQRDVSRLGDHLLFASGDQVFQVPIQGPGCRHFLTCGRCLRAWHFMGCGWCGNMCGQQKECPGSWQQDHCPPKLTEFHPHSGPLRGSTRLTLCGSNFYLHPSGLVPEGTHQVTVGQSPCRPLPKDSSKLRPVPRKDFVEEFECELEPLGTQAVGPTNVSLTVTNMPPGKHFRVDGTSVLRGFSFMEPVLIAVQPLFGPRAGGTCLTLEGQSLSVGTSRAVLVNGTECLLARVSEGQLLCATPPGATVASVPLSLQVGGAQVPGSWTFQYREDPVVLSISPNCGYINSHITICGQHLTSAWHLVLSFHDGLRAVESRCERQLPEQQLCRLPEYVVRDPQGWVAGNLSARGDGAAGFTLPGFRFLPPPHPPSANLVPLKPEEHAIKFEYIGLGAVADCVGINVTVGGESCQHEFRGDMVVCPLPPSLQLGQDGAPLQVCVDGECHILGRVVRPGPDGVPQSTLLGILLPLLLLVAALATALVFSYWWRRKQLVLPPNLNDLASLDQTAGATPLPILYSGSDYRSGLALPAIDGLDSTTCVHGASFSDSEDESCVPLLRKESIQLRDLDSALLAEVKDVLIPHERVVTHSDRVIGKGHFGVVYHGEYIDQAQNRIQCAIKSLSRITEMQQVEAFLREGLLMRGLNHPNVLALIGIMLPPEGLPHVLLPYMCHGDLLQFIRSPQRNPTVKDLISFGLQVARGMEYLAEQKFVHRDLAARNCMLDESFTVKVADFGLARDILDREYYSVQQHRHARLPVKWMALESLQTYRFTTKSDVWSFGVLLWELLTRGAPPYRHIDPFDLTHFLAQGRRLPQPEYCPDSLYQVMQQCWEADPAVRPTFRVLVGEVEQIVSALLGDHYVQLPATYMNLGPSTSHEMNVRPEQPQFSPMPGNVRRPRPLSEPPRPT

In general, IC50 refers to the midpoint of a concentration-inhibition curve. For `C[C@@H](Oc1c(N)ncc2c(C3=CCN(C(=O)[C@H](N)Cc4cnc[nH]4)CC3)coc12)c1c(Cl)ccc(F)c1Cl` [Example 264, (2R)-2-Amino-1-[4-{6-amino-7-[(1R)-1-(2,6-dichloro-3-fluoro-phenyl)ethoxy]furo[3,2-c]pyridin-3-yl}-3,6-dihydropyridin-1(2H)-yl]-3-(1H-imidazol-5-yl)propan-1-one], the IC50 at RON (human) was 5000 to 20000 nM; at MET (human) it was below 500 nM.
For `C[C@@H](Oc1c(N)ncc2c(-c3ccc(C(=O)N(C)C)cc3)coc12)c1c(Cl)ccc(F)c1Cl` [Example 72, 4-{6-Amino-7-[(R)-1-(2,6-dichloro-3-fluorophenyl)ethoxy]-furo[3,2-c]pyridin-3-yl}-N,N-dimethylbenzamide], in that order: 500 to 5000 nM and below 500 nM.
`Cn1c(Cc2ccccc2)ncc(-c2ccc(COc3c(N)ncc4ccoc34)cc2)c1=O` [Example 467, 5-[4-(6-Aminofuro[3,2-c]pyridin-7-yloxymethyl)phenyl]-2-benzyl-3-methyl-3H-pyrimidin-4-one]: the IC50 at RON (human) was 5000 to 20000 nM; on MET (human), above 20000 nM.
For `C[C@@H](Oc1c(N)ncc2c(-c3ccc(N4CCNCC4)nc3)coc12)c1c(Cl)ccc(F)c1Cl` [Example 130, 7-[(R)-(2,6-Dichloro-3-fluorophenyl)ethoxy]-3-(6-piperazin-1-yl-pyridin-3-yl)furo[3,2-c]pyridin-6-ylamine], in that order: below 500 nM and below 500 nM.
The corresponding values for `C[C@@H](Oc1c(N)ncc2c(C3=CCN(C(=O)C(N)C(F)(F)F)CC3)coc12)c1c(Cl)ccc(F)c1Cl` (stereo partly drawn) [Example 260, 2-Amino-1-[4-{6-amino-7-[(1R)-1-(2,6-dichloro-3-fluorophenyl)-ethoxy]furo[3,2-c]pyridin-3-yl}-3,6-dihydropyridin-1(2H)-yl]-3,3,3-trifluoropropan-1-one] are 500 to 5000 nM and 500 to 5000 nM.
The corresponding values for `CC(C)C(=O)N1CC=C(c2coc3c(O[C@H](C)c4c(Cl)ccc(F)c4Cl)c(N)ncc23)CC1` [Example 15, 1-(4-{6-Amino-7-[(R)-1-(2,6-dichloro-3-fluorophenyl)-ethoxy]-furo[3,2-c]pyridin-3-yl}-3,6-dihydro-2H-pyridin-1-yl)-2-methylpropan-1-one] are 500 to 5000 nM and 500 to 5000 nM.
In the case of `Cc1ccsc1-c1coc2c(O[C@H](C)c3c(Cl)ccc(F)c3Cl)c(N)ncc12` [Example 116, 7-[(R)-1-(2,6-Dichloro-3-fluorophenyl)ethoxy]-3-(3-methylthiophen-2-yl)furo[3,2-c]pyridin-6-ylamine], the IC50 at RON (human) lay within 5000 to 20000 nM; at MET (human), 500 to 5000 nM.
For `C[C@@H](Oc1c(N)ncc2c(-c3ccc(C(=O)NCCN(C)C)cc3)coc12)c1c(Cl)ccc(F)c1Cl` [Example 71, 4-{6-Amino-7-[(R)-1-(2,6-dichloro-3-fluorophenyl)ethoxy]-furo[3,2-c]pyridin-3-yl}-N-(2-dimethylaminoethyl)benzamide], the IC50 on RON (human) and at MET (human) was below 500 nM each time.
`CC(Oc1c(N)ncc2c(-c3cnn(C4CCNCC4)c3)coc12)c1c(Cl)cccc1Br` (stereo not shown) [Example 361, 7-[1-(2-Bromo-6-chlorophenyl)ethoxy]-3-(1-piperidin-4-yl-1H-pyrazol-4-yl)furo[3,2-c]pyridin-6-ylamine]: the half-maximal inhibitory concentration (IC50) at RON (human) and at MET (human) was below 500 nM in each case.
Consider `Cc1ccccc1C(C)Oc1c(N)ncc2c(-c3cnn(C4CCNCC4)c3)coc12` (stereo not shown) [Example 342, 3-(1-Piperidin-4-yl-1H-pyrazol-4-yl)-7-(1-o-tolylethoxy)furo[3,2-c]pyridin-6-ylamine], for which the IC50 was 500 to 5000 nM at RON (human) and below 500 nM on MET (human).
Regarding `C[C@@H](Oc1c(N)ncc2c(C3=CCN(C(=O)[C@H](N)c4ccccc4)CC3)coc12)c1c(Cl)ccc(F)c1Cl` [Example 262, (2R)-2-Amino-1-[4-{6-amino-7-[(1R)-1-(2,6-dichloro-3-fluoro-phenyl)ethoxy]furo[3,2-c]pyridin-3-yl}-3,6-dihydropyridin-1(2H)-yl]-2-phenylethanone], the IC50 on RON (human) and at MET (human) was below 500 nM in each case.
In the case of `C[C@@H](Oc1c(N)ncc2c(-c3cnn(C4CCNCC4)c3)coc12)c1ccccn1` [Example 399, 3-(1-Piperidin-4-yl-1H-pyrazol-4-yl)-7-((R)-1-pyridin-2-yl-ethoxy)furo[3,2-c]pyridin-6-ylamine], the IC50 on RON (human) and on MET (human) was 500 to 5000 nM each time.
For `Cn1c(Cc2ccccc2)ncc(-c2ccc(COc3c(N)ncc4ccoc34)c(F)c2)c1=O` [Example 468, 5-[4-(6-Aminofuro[3,2-c]pyridin-7-yloxymethyl)-3-fluorophenyl]-2-benzyl-3-methyl-3H-pyrimidin-4-one], the IC50 at RON (human) and on MET (human) was 5000 to 20000 nM each time.
As to `C[C@@H]1CN(C(=O)CN2CC=C(c3coc4c(O[C@H](C)c5c(Cl)ccc(F)c5Cl)c(N)ncc34)CC2)C[C@H](C)O1` (relative stereo) [Example 204, 2-(4-{6-Amino-7-[(R)-1-(2,6-dichloro-3-fluorophenyl)ethoxy]-furo[3,2-c]pyridin-3-yl}-3,6-dihydro-2H-pyridin-1-yl)-1-((2R*,6S*)-2,6-dimethylmorpholin-4-yl)ethanone], the IC50 was 500 to 5000 nM on RON (human) and below 500 nM at MET (human).
Turning to `C[C@@H](Oc1c(N)ncc2c(C3=CCN(CC(=O)N(C)C)CC3)coc12)c1c(Cl)ccc(F)c1Cl` [Example 200, 2-(4-{6-Amino-7-[(R)-1-(2,6-dichloro-3-fluorophenyl)ethoxy]-furo[3,2-c]pyridin-3-yl}-3,6-dihydro-2H-pyridin-1-yl)-N,N-dimethylacetamide], the IC50 on RON (human) was 500 to 5000 nM; on MET (human), below 500 nM.
For `C[C@@H](Oc1c(N)ncc2c(-c3cncnc3)coc12)c1c(Cl)ccc(F)c1Cl` [Example 112, 7-[(R)-1-(2,6-Dichloro-3-fluorophenyl)ethoxy]-3-pyrimidin-5-ylfuro[3,2-c]pyridin-6-ylamine], the IC50 at RON (human) and on MET (human) was 500 to 5000 nM each time.
As for `C[C@@H](Oc1c(N)ncc2c(-c3ccc(CN4CCSCC4)s3)coc12)c1c(Cl)ccc(F)c1Cl` [Example 219, 7-[(R)-1-(2,6-Dichloro-3-fluorophenyl)ethoxy]-3-(5-thiomorpholin-4-ylmethylthiophen-2-yl)furo[3,2-c]pyridin-6-ylamine], the IC50 on RON (human) and on MET (human) was 500 to 5000 nM throughout.
Turning to `CCCN1CC=C(c2coc3c(O[C@H](C)c4c(Cl)ccc(F)c4Cl)c(N)ncc23)CC1` [Example 42, 7-[(R)-1-(2,6-Dichloro-3-fluorophenyl)-ethoxy]-3-(1-propyl-1,2,3,6-tetrahydropyridin-4-yl)-furo[3,2-c]pyridin-6-ylamine], the IC50 on RON (human) and on MET (human) was below 500 nM throughout.
As for `C[C@@H](Oc1c(N)ncc2c(C3CCN(C(N)=O)CC3)coc12)c1c(Cl)ccc(F)c1Cl` [Example 195, 4-{6-Amino-7-[(R)-1-(2,6-dichloro-3-fluorophenyl)ethoxy]furo[3,2-c]pyridin-3-yl}-piperidine-1-carboxamide], the IC50 on RON (human) and on MET (human) was 500 to 5000 nM each time.
As for `C[C@@H](Oc1c(N)ncc2c(C3=CCN(C(=O)CCCN(C)C)CC3)coc12)c1c(Cl)ccc(F)c1Cl` [Example 20, 1-(4-{6-Amino-7-[(R)-1-(2,6-dichloro-3-fluorophenyl)-ethoxy]-furo[3,2-c]pyridin-3-yl}-3,6-dihydro-2H-pyridin-1-yl)-4-dimethylaminobutan-1-one], the IC50 at RON (human) and at MET (human) was below 500 nM each time.
With `C[C@@H](Oc1c(N)ncc2c(-c3cccc(NS(=O)(=O)c4cccs4)c3)coc12)c1c(Cl)ccc(F)c1Cl` [Example 247, Thiophene-2-sulfonic acid (3-{6-amino-7-[(R)-1-(2,6-dichloro-3-fluorophenyl)-ethoxy]-furo[3,2-c]pyridin-3-yl}phenyl)amide], the IC50 was 5000 to 20000 nM on RON (human) and 500 to 5000 nM at MET (human).
Regarding `Cn1c(Cc2ccccc2)ncc(-c2ccc(COc3c(N)ncc4c(-c5cnn(C6CCNCC6)c5)coc34)c(F)c2)c1=O` [Example 463, 5-{4-[6-Amino-3-(1-piperidin-4-yl-1H-pyrazol-4-yl)-furo[3,2-c]pyridin-7-yloxymethyl]-3-fluorophenyl}-2-benzyl-3-methyl-3H-pyrimidin-4-one], the IC50 at RON (human) and on MET (human) was below 500 nM each time.
For the molecule `Nc1ncc2c(-c3cnn(C4CCNCC4)c3)coc2c1OC1CCCc2c(F)cccc21` (stereo not shown) [Example 390, 7-(5-Fluoro-1,2,3,4-tetrahydronaphthalen-1-yloxy)-3-(1-piperidin-4-yl-1H-pyrazol-4-yl)furo[3,2-c]pyridin-6-ylamine], the IC50 at RON (human) and at MET (human) was below 500 nM in each case.
As for `C[C@@H](Oc1c(N)ncc2c(-c3csc(CN(C)C)c3)coc12)c1c(Cl)ccc(F)c1Cl` [Example 303, 7-[(R)-1-(2,6-Dichloro-3-fluorophenyl)ethoxy]-3-(5-dimethyl-aminomethylthiophen-3-yl)furo[3,2-c]pyridin-6-ylamine], the IC50 at RON (human) and on MET (human) was below 500 nM throughout.
Turning to `C[C@@H](Oc1c(N)ncc2c(-c3cnn(C4CCNCC4)c3)c(C#CCN)oc12)c1c(Cl)ccc(F)c1Cl` [Example 173, 2-(3-Aminoprop-1-ynyl)-7-[(R)-1-(2,6-dichloro-3-fluorophenyl)ethoxy]-3-(1-piperidin-4-yl-1H-pyrazol-4-yl)-furo[3,2-c]pyridin-6-ylamine], the IC50 at RON (human) and at MET (human) was below 500 nM each time.
With `CCNC(=O)N1CCC(n2cc(-c3coc4c(O[C@H](C)c5c(Cl)ccc(F)c5Cl)c(N)ncc34)cn2)CC1` [Example 273, 4-(4-{6-Amino-7-[(1R)-1-(2,6-dichloro-3-fluorophenyl)ethoxy]furo[3,2-c]pyridin-3-yl}-1H-pyrazol-1-yl)-N-ethylpiperidine-1-carboxamide], the IC50 on RON (human) and at MET (human) was 500 to 5000 nM throughout.
